The values below come from patent US10344026B2, “Compositions and methods of targeting mutant K-ras” (NANTBIO, INC., priority 2017, dated 2019).

Read-outs that look alike come from different tables or passages of the source.

Assay type in all cases: cell-based
The test system of assay [1] is HCC827 (K-Ras wild type cell line). Kind of assay: Viability assay (CellTiterBlue, 72 hr) HCC827. Particulars: Homo sapiens, GI50, CellTiterBlue. On the procedure:
(§1) Viability assays were performed on exemplary compounds and Table 2 below lists exemplary results for selected compounds tested on K-Ras wild type cell lines (Ishikawa, U87-MG, HCC827, and A375) and various K-Ras mutant cell lines (Panc1-G12D; Panc10.05-G12D; HCT116-G31D). Results are expressed in μM and corresponding structures are shown in FIGS. 2A-2G and Examples 1-152, above.
(§2) Cells are counted and seeded at 1000 cells/36 ul medium/well into 384-well microplates. Cells are returned to 37° C. CO2 incubator for 18 hr. Drug is made as 200× in DMSO and diluted into medium to 10×. To each well is added 4 ul 10× drug, and plates are returned to the incubator. Final assay DMSO concentration is 0.5%. After 72 hr, 8 ul CellTiterBlue (Promega) is added to each well. After 3 hr, fluorescence (Ex550/Em590) is determined on the Victor Plate Reader (Perkin Elmer). Assay range is determined by DMSO control (100% viability) and 100 uM tamoxifen (0% viability). GI50 values are calculated using Graphpad Prism.

For assay [2], the system named is Ishikawa (K-Ras wild type cell line). Kind of assay: Viability assay (CellTiterBlue, 72 hr) Ishikawa. Particulars: Homo sapiens, GI50, CellTiterBlue. As to the method: as §1, §2
A further assay concerns the target T1, K-Ras G12D (Homo sapiens, UniProt P01116, G12D).
T1 construct: expressed in transfected cells; host or cells: 293H cells
Kind of assay: G-LISA Ras activation, 293H cells transfected with G12D mutant. The following applies: compound 1 hour. As to the method: 293H cells were seeded in 6-wells at 0.6×10^6 cells per well and transfected next day with 5 μg of Ras wild-type, or G12C, G12D or G12V mutant DNA plasmid vector using transfection reagent Lipofectamine 3000. Next day cells were treated with 3.125-25 μM of Ras compounds for 1 hour. Wild-type transfected cells were subsequently treated with 100 ng/ml EGF for 2 minutes. Cells were washed once in ice-cold PBS, lysed in complete lysis buffer on ice, and processed by G-LISA according to Cytoskeleton protocol.

In another assay the test system is Panc10.05-G12D. The assay is described as follows: Viability assay (CellTiterBlue, 72 hr) Panc10.05. Particulars: Homo sapiens, Panc1005, GI50, CellTiterBlue, read-out: 72 hr Cell Viability Panc10.05 (G12D). As to the method:
as §1, §2

Assay [3] relates to U87-MG (K-Ras wild type cell line). Kind of assay: Viability assay (CellTiterBlue, 72 hr) U87-MG. Particulars: Homo sapiens, U-87 MG, GI50, CellTiterBlue. On the procedure: as §1, §2
In the next assay the test system is Panc1-G12D. Kind of assay: Viability assay (CellTiterBlue, 72 hr) Panc1. The following applies: Homo sapiens, PANC-1, GI50, CellTiterBlue, read-out: 72 hr Cell Viability Panc1 (G12D). As to the method:
as §1, §2

In the next assay the test system is HCT116-G31D. Kind of assay: Viability assay (CellTiterBlue, 72 hr) HCT116. The following applies: Homo sapiens, HCT-116, GI50, CellTiterBlue, read-out: 72 hr Cell Viability HCT116 (G13D). As to the method:
as §1, §2

The mark [4] stands for this setting: Ishikawa cells (K-Ras wild-type).

T1 sequence (P01116 whole entry G12D): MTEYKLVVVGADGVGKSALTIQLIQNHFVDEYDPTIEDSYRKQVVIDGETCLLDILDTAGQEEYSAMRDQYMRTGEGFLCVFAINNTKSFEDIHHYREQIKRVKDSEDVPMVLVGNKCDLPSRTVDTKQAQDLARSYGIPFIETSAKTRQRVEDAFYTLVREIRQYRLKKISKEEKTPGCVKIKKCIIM

On to `Cn1nccc1-c1csc(C(=O)Nc2nc(-c3ccc4c(c3)CCC(=O)N4)cs2)c1` [Compound 151, 4-(1-methyl-1H-pyrazol-5-yl)-N-(4-(2-oxo-1,2,3,4-tetrahydroquinolin-6-yl)thiazol-2-yl)thiophene-2-carboxamide], for which the IC50 in assay [1] (HCC827 cells (K-Ras wild-type)) stood at 8 µM; in assay [2] (setting [4]) it was 1.3 µM; at K-Ras G12D it was 23.5 µM; with Panc10.05-G12D (Panc10.05 cells (K-Ras G12D)), 1.4 µM; in assay [3] (U87-MG cells (K-Ras wild-type)), 5 µM; in the assay with Panc1-G12D (Panc1 cells (K-Ras G12D)) it was 4 µM. Also, the IC50 with HCT116-G31D (HCT116 cells (K-Ras G13D)) came out at 2 µM.

Turning to `Cc1nc(C)c(C(=O)Nc2nc(-c3ccc4c(c3)CCC(=O)N4CC3CCCNC3)cs2)o1` (stereo not drawn) [Compound 88], the IC50 in assay [1] (HCC827 K-Ras wild-type) is 15 µM; in the assay on Panc10.05-G12D (Panc10.05 K-Ras G12D), 16 µM; in assay [3] (U87-MG K-Ras wild-type) it was 19 µM; in the assay with Panc1-G12D (Panc1 K-Ras G12D), above 25 µM; in the assay on HCT116-G31D (HCT116 K-Ras G13D), 17 µM.

Take `COc1cc(Cl)cc(CN2C(=O)CCc3cc(-c4csc(NC(=O)c5oc(C)nc5C)n4)ccc32)c1` [Compound 78]: the IC50 (in assay [1] (HCC827 K-Ras wild-type); in assay [2] (Ishikawa K-Ras wild-type); in the assay on Panc10.05-G12D (Panc10.05 K-Ras G12D); in assay [3] (U87-MG K-Ras wild-type); with Panc1-G12D (Panc1 K-Ras G12D); in the assay with HCT116-G31D (HCT116 K-Ras G13D)) was above 25 µM each time.

With `COc1cc(CN2C(=O)CCc3cc(-c4csc(NC(=O)c5oc(C)nc5C)n4)ccc32)cc(OC)c1` [Compound 77, N-(4-(1-(3,5-dimethoxybenzyl)-2-oxo-1,2,3,4-tetrahydroquinolin-6-yl)thiazol-2-yl)-2,4-dimethyloxazole-5-carboxamide], the IC50 (in assay [1] (HCC827 K-Ras wild-type); in assay [2] (Ishikawa K-Ras wild-type); with Panc10.05-G12D (Panc10.05 K-Ras G12D); in assay [3] (U87-MG K-Ras wild-type); in the assay with Panc1-G12D (Panc1 K-Ras G12D); in the assay on HCT116-G31D (HCT116 K-Ras G13D)) was above 25 µM in each case.

Turning to `Cc1nc(C)c(C(=O)Nc2nc(-c3ccc4c(c3)CCC(=O)N4Cc3cccc4cnccc34)cs2)o1` [Compound 83, N-(4-(1-(isoquinolin-5-ylmethyl)-2-oxo-1,2,3,4-tetrahydroquinolin-6-yl)thiazol-2-yl)-2,4-dimethyloxazole-5-carboxamide], the IC50 is 6 µM in assay [1] (HCC827 K-Ras wild-type); 2 µM in assay [2] (Ishikawa K-Ras wild-type); above 25 µM on K-Ras G12D; 4 µM in the assay on Panc10.05-G12D (Panc10.05 K-Ras G12D); 3 µM in assay [3] (U87-MG K-Ras wild-type); 12 µM in the assay with Panc1-G12D (Panc1 K-Ras G12D). For the same compound, in the assay on HCT116-G31D (HCT116 K-Ras G13D), the IC50 is 4 µM.

As to `O=C1CCc2cc(-c3csc(NC(=O)c4cc(Br)cs4)n3)ccc2N1` [Compound 149, 4-bromo-N-(4-(2-oxo-1,2,3,4-tetrahydroquinolin-6-yl)thiazol-2-yl)thiophene-2-carboxamide], the IC50 in assay [1] (HCC827 cells (K-Ras wild-type)) was 22 µM; in assay [2] (setting [4]), 7 µM; with Panc10.05-G12D (Panc10.05 cells (K-Ras G12D)), 22 µM; in assay [3] (U87-MG cells (K-Ras wild-type)), 11 µM; in the assay with Panc1-G12D (Panc1 cells (K-Ras G12D)), above 25 µM; with HCT116-G31D (HCT116 cells (K-Ras G13D)) it was 28 µM.

Consider `O=C1CCc2cc(-c3csc(NC(=O)c4ccc(Cl)s4)n3)ccc2N1` [Compound 150, 5-chloro-N-(4-(2-oxo-1,2,3,4-tetrahydroquinolin-6-yl)thiazol-2-yl)thiophene-2-carboxamide], for which the IC50 is 20 µM in assay [1] (HCC827 cells (K-Ras wild-type)); 5 µM in assay [2] (setting [4]); above 25 µM against K-Ras G12D; 20 µM in the assay on Panc10.05-G12D (Panc10.05 cells (K-Ras G12D)); 8 µM in assay [3] (U87-MG cells (K-Ras wild-type)); 27 µM with Panc1-G12D (Panc1 cells (K-Ras G12D)). Further, in the assay on HCT116-G31D (HCT116 cells (K-Ras G13D)), the IC50 was 27 µM.

For the compound `Cc1nc(C)c(C(=O)Nc2nc(-c3ccc4c(c3)CCC(=O)N4Cc3ccc4c(c3)OCO4)cs2)o1` [Compound 74, N-(4-(1-(benzo[d][1,3]dioxol-5-ylmethyl)-2-oxo-1,2,3,4-tetrahydroquinolin-6-yl)thiazol-2-yl)-2,4-dimethyloxazole-5-carboxamide], the IC50 is above 25 µM in assay [1] (HCC827 K-Ras wild-type); 16 µM in assay [2] (Ishikawa K-Ras wild-type); 22.4 µM at K-Ras G12D; 2 µM with Panc10.05-G12D (Panc10.05 K-Ras G12D); 6 µM in assay [3] (U87-MG K-Ras wild-type); 11 µM in the assay on Panc1-G12D (Panc1 K-Ras G12D). Moreover, in the assay with HCT116-G31D (HCT116 K-Ras G13D), the IC50 was above 25 µM.

As to `Cc1nc(C)c(C(=O)Nc2nc(-c3ccc4c(c3)CCC(=O)N4Cc3cccc4ccccc34)cs2)o1` [Compound 79, 2,4-dimethyl-N-(4-(1-(naphthalen-1-ylmethyl)-2-oxo-1,2,3,4-tetrahydroquinolin-6-yl)thiazol-2-yl)oxazole-5-carboxamide], the IC50 (in assay [1] (HCC827 K-Ras wild-type); in assay [2] (Ishikawa K-Ras wild-type); with Panc10.05-G12D (Panc10.05 K-Ras G12D); in assay [3] (U87-MG K-Ras wild-type); with Panc1-G12D (Panc1 K-Ras G12D); in the assay on HCT116-G31D (HCT116 K-Ras G13D)) was above 25 µM in each case.

Take `Cc1nc(C)c(C(=O)Nc2nc(-c3ccc4c(c3)CCC(=O)N4Cc3cccc([N+](=O)[O-])c3)cs2)o1` [Compound 87, 2,4-dimethyl-N-(4-(1-(3-nitrobenzyl)-2-oxo-1,2,3,4-tetrahydroquinolin-6-yl)thiazol-2-yl)oxazole-5-carboxamide]: the IC50 is above 25 µM in assay [1] (HCC827 K-Ras wild-type); 17 µM in the assay with Panc10.05-G12D (Panc10.05 K-Ras G12D); above 25 µM in assay [3] (U87-MG K-Ras wild-type); 17 µM in the assay on Panc1-G12D (Panc1 K-Ras G12D); above 25 µM in the assay with HCT116-G31D (HCT116 K-Ras G13D).

Regarding `Cc1nc(C2CCCCC2)oc1C(=O)Nc1nc(-c2ccc3c(c2)CCC(=O)N3)cs1` [Compound 11, 2-cyclohexyl-4-methyl-N-(4-(2-oxo-1,2,3,4-tetrahydroquinolin-6-yl)thiazol-2-yl)oxazole-5-carboxamide], the IC50 was 21 µM in assay [1] (HCC827 K-Ras wild-type); 16 µM in the assay with Panc10.05-G12D (Panc10.05 K-Ras G12D); above 25 µM in assay [3] (U87-MG K-Ras wild-type); above 25 µM with Panc1-G12D (Panc1 K-Ras G12D); 16 µM in the assay with HCT116-G31D (HCT116 K-Ras G13D).

Regarding `Cc1nc(C)c(C(=O)Nc2nc(-c3ccc4c(c3)CCC(=O)N4CC(O)CO)cs2)o1` (stereo not drawn) [Compound 89, N-(4-(1-(2,3-dihydroxypropyl)-2-oxo-1,2,3,4-tetrahydroquinolin-6-yl)thiazol-2-yl)-2,4-dimethyloxazole-5-carboxamide], the IC50 was 12 µM in assay [1] (HCC827 K-Ras wild-type); 12 µM in the assay with Panc10.05-G12D (Panc10.05 K-Ras G12D); 13 µM in assay [3] (U87-MG K-Ras wild-type); above 25 µM in the assay on Panc1-G12D (Panc1 K-Ras G12D); 11 µM in the assay with HCT116-G31D (HCT116 K-Ras G13D).

Turning to `Cc1nc(C)c(C(=O)Nc2nc(-c3ccc4c(c3)CCC(=O)N4Cc3ccc4ccccc4c3)cs2)o1` [Compound 80, 2,4-dimethyl-N-(4-(1-(naphthalen-2-ylmethyl)-2-oxo-1,2,3,4-tetrahydroquinolin-6-yl)thiazol-2-yl)oxazole-5-carboxamide], the IC50 in assay [1] (HCC827 K-Ras wild-type) was 7 µM; in assay [2] (Ishikawa K-Ras wild-type) it was above 25 µM; with Panc10.05-G12D (Panc10.05 K-Ras G12D), 9 µM; in assay [3] (U87-MG K-Ras wild-type), 4 µM; in the assay with Panc1-G12D (Panc1 K-Ras G12D), above 25 µM; in the assay with HCT116-G31D (HCT116 K-Ras G13D), 9 µM.

As to `Cc1cc(C)c(C(=O)Nc2nc(-c3ccc4c(c3)CCC(=O)N4)cs2)cn1` [Compound 18], the IC50 is above 25 µM in assay [1] (HCC827 K-Ras wild-type); 2 µM in assay [2] (Ishikawa K-Ras wild-type); 3 µM with Panc10.05-G12D (Panc10.05 K-Ras G12D); 11 µM in assay [3] (U87-MG K-Ras wild-type); 5 µM in the assay with Panc1-G12D (Panc1 K-Ras G12D); 26 µM in the assay with HCT116-G31D (HCT116 K-Ras G13D).

In the case of `Cc1nc(-c2ccc3c(c2)OCC3)sc1C(=O)Nc1nc(-c2ccc3c(c2)CCC(=O)N3)cs1` [Compound 19, 2-(2,3-dihydrobenzofuran-6-yl)-4-methyl-N-(4-(2-oxo-1,2,3,4-tetrahydroquinolin-6-yl)thiazol-2-yl)thiazole-5-carboxamide], the IC50 in assay [1] (HCC827 K-Ras wild-type) came out at 8 µM; in assay [2] (Ishikawa K-Ras wild-type), 2 µM; in the assay with Panc10.05-G12D (Panc10.05 K-Ras G12D) it was 2 µM; in assay [3] (U87-MG K-Ras wild-type), 4 µM; in the assay on Panc1-G12D (Panc1 K-Ras G12D), 6 µM; in the assay on HCT116-G31D (HCT116 K-Ras G13D), 5 µM.
